# Molecular target: T1, human glucocorticoid receptor-α [GRX] isoform (Homo sapiens, UniProt P04150)
# T1 construct: purchased Ligand Pharmaceuticals (San Diego, CA); host or cells: insect SF21 cells (baculovirus)
# T1 sequence (P04150 1-777): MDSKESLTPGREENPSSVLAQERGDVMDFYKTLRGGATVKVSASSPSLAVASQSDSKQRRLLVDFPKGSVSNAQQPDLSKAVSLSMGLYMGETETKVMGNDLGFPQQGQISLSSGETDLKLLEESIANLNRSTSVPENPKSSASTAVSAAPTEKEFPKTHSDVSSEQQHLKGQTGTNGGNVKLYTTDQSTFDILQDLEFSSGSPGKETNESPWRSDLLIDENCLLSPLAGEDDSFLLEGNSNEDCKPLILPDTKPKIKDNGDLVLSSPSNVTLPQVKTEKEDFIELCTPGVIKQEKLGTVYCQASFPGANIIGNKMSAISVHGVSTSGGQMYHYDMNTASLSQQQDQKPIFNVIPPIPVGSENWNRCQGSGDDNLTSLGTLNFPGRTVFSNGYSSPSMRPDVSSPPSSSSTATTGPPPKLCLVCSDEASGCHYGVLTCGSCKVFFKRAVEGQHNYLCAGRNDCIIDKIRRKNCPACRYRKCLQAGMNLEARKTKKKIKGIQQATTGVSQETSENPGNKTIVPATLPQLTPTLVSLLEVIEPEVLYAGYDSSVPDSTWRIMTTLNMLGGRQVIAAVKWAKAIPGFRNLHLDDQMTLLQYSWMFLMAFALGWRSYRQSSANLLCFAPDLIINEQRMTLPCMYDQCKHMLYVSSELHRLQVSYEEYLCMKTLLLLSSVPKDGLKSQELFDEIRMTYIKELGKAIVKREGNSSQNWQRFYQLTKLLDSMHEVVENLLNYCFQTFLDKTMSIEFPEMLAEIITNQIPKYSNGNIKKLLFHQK
# Test: glucocorticoid receptor (GR) cytosol binding assay, [3H]-dexamethasone competition
# Settings: not given
# Source text: For glucocorticoid receptor (OR) cytosol binding assays, the procedure described in Anal. […] Briefly, cytosol preparations of human glucocorticoid receptor-α [GRX] isoform and human progesterone receptor-A [PRA] isoform were obtained from Ligand Pharmaceuticals (San Diego, CA). Both receptor cDNAs were cloned into baculovirus expression vectors and expressed in insect SF21 cells. […] Glass fiber type C multiscreen MAFC NOB plates were from Millipore ( Burlington, MA). Hydroxyapatide Bio-Gel HTP gel was obtained from Bio-Rad Laboratories (Hercules. CA). Tris(hydroxymethyl)aminomethane (Tris), ethylenediaminetetraacetic acid (EDTA), glycerol, dithiothreitol (DTT) and sodium moylybdate were obtained from Sigma Chemicals (St. Louis, MO). Microscint-20 scintillation fluid was obtained from Packard Instrument (Meriden, CT). […] GRX and PRA binding reactions were performed in Millipore Multiscreen plates. […] Specific binding was defined as the difference between binding of [^3H]Dex in the absence and in the presence of 1µM unlabeled Dex. After an overnight incubation, 50 µL of hydroxyapatite (25 % weight/volume) slurry were added to each well and plates were incubated for 10 min at 4 °C in a plate shaker. Plates were suctioned with a Millipore vacuum manifold and each well was rinsed with 300 µL of ice-cold binding buffer. A 250 µL aliquot of Packard Microscint-20 was added to each well and the wells were shaken at room temperature for 20 minutes. The amount of radioactivity was determined with a Packard TopCount plate reader.
row,SMILES,Ki [nM]
1,"CN(C)c1ccc(C(c2ccc(N(C)C)cc2)c2cc(NC(=O)c3ccc([N+](=O)[O-])cc3)ccc2Cl)cc1 [Example 60, 4',4"" bis(dimethylamino)-2-chloro-5-(4-nitrobenzamido)triphenylmethane]",4650
2,"CN(C)c1ccc(C(c2ccc(N(C)C)cc2)c2cc(Cl)cc(Cl)c2Cl)cc1 [Example 16, 4',4"" bis(dimethylamino)-2,3,5-trichlorotriphenylmethane]",479
3,"CN(C)c1ccc(C(c2ccc(N(C)C)cc2)c2cc(I)ccc2Cl)cc1 [Example 33, 4'.4"" bis(dimethylamino)-2-chloro-5-iodotriphenylmethane]",2300

# Same assay, conditions: [3H]-Dex ~0.9 nM, GRX cytosol, 4 °C overnight; Cheng-Prusoff; read-out: Ki (nM) GR
row,SMILES,Ki [nM]
1,"Clc1ccc(Cl)c(C(c2ccc(NCc3ccccc3)cc2)c2ccc(NCc3ccccc3)cc2)c1 [Example 37, 4',4"" bis(N-benzylamino)-2,5-dichlorotriphenylmethane]",421
2,"CN(C)c1ccc(C(c2ccc(N(C)C)cc2)c2ccc(Cl)c([N+](=O)[O-])c2)cc1 [Example 2, 4',4"" bis(dimethylamino)-4-chloro-3-nitrotriphenylmethane]",4200
3,"CN(C)c1ccc(C(c2ccc(N(C)C)cc2)c2cc(Br)ccc2Cl)cc1 [Example 34, 4',4"" bis(dimethylamino)-5-bromo-2-chlorotriphenylmethane]",725
4,"CN(C)c1ccc(C(c2ccc(N(C)C)cc2)c2c(Cl)cccc2[N+](=O)[O-])cc1 [Example 12, 4',4"" bis(dimethylamino)-2-chloro-6-nitrotriphenylmethane]",3850
5,"CN(C)c1ccc(C(c2ccc(N(C)C)cc2)c2cc(N)ccc2Cl)cc1 [Example 59, 4',4"" bis(dimethylamino)-5-amino-2-chlorotriphenylmethane]",4600
6,"O=[N+]([O-])c1ccc(Cl)c(C(c2ccc(N3CCCC3)cc2)c2ccc(N3CCCC3)cc2)c1 [Example 29, 4',4"" bis(N-pyrrolidinyl)-2-chloro-5-nitrotriphenylmethane]",4560
7,"O=[N+]([O-])c1ccc(Cl)c(C(c2ccc(N3CCOCC3)cc2)c2ccc(N3CCOCC3)cc2)c1 [Example 22, 4',4"" bis(N-morpholinyl)-2-chloro-5-nitrotriphenylmethane]",386
